Experimental data as given in paper PMC11590106, “Computational Model-Assisted Development of a Nonenzymatic Fluorescent Glucose-Sensing Assay” (ACS Sensors, 2024).

Experiments:
Concanavalin A (ConA) [1] = molecular target: T1, Concanavalin A (ConA) (Canavalia ensiformis, UniProt P02866); assay: competitive fluorescence anisotropy, displacement of Cy5.5-mannotetraose from PEG-ConA; type: binding; parameters: ConA Type IV (Sigma), PEGylated (5 kDa mPEG)
Concanavalin A (ConA) [2] = molecular target: T1, Concanavalin A (ConA); assay: fluorescence anisotropy titration (association constant Ka); type: binding; parameters: ConA Type IV (Sigma), PEGylated (5 kDa mPEG); tetramer treated as one protein

T1 sequence (P02866 164-281 limits assumed): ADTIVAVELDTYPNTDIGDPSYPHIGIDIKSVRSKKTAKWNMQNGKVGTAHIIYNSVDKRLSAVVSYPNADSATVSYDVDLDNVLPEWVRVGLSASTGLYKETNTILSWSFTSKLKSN
T1 sequence (P02866 30-148 limits assumed): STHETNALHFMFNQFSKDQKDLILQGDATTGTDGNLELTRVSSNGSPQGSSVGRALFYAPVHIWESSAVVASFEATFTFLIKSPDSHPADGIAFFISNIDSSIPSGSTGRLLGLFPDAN

Compound | competitive fluorescence anisotropy, displacement of Cy5.5-mannotetraose from PE (Concanavalin A (ConA) [1]) | fluorescence anisotropy titration (association constant Ka) (Concanavalin A (ConA) [2])
OC[C@H]1OC(O)[C@H](O)[C@@H](O)[C@@H]1O (stereo partly drawn) [glucose] | a sensitive response of the assay was observed for various glucose concentrations within the physiological range | 
Cy5.5-mannobiose |  | 1.73 × 10^6 M^–1
Cy5.5-mannotriose |  | 5.33 × 10^6 M^–1
